Where two headings read alike, the source gives them in different places.
What was measured:
[1] = system: HCMV TB40/E strain; assay: Plaque reduction assay, HCMV TB40/E strain in human foreskin fibroblasts, single drugs and 2-drug combinations (Chou-Talalay); assay type: cell-based, human cytomegalovirus; settings: for EC50: Human betaherpesvirus 5, Fibroblast; for DRI (dose reduction index): combination artemisone + maribavir
Protocol: The CMV strain used was TB40/E. The CMV strain was propagated and tittered in human foreskin fibroblasts (HFF) cells. Cell-free virus stocks and cell-associated clinical isolates were maintained at -70° C. Viral stocks were tittered by serial 10-fold dilution in 24-well tissue culture plates containing HFF monolayers overlaid with agarose-medium. After incubation for 7 to 14 days, plaques were enumerated, and virus titer was determined as plaque forming units (PFU) per milliliter (ml). Stocks of artemisone (10 mM), ganciclovir (10 mM), BDCRB (120 mM), brincidofovir (1 mM), maribavir (10 mM) and letermovir (10 mM) were prepared in DMSO or H2O.
Cell monolayers were inoculated in 24-well culture plates with 0.2 ml of virus suspension containing 60 to 100 PFU per well. After adsorption for 60 -120 min at 37° C., the inoculum was removed, and culture medium was replaced with agarose-medium overlay containing serial concentrations of the tested drug(s). Plates were incubated for 7-14 days at 37° C. in a 5% CO2 incubator. Plaques were then counted microscopically.
The effect of a combination of artemisone with each one of ganciclovir (HCMV DNA polymerase), BDCRB (HCMV terminase inhibitor), brincidofovir (HCMV DNA polymerase inhibitor), maribavir (HCMV UL97 kinase inhibitor) and letermovir (HCMV terminase inhibitor) was evaluated by the classical plaque reduction assay. The in vitro activity of each of the above mentioned antiviral compounds alone or in combination with artemisone was evaluated by the classical plaque reduction assay, using HCMV TB40/E strain in human foreskin fibroblasts cells. The concentration of each antiviral compound that reduced the plaque formation by 50% (EC50) was determined as previously described in Wolf DG et al., J Clin Invest. 1995;95:257-63. The individual EC50 values in human foreskin fibroblasts were as follows: artemisone EC50 - 1 µM; ganciclovir EC50 - 1 µM; maribavir EC50 - 1 µM; BDCRB EC50 - 0.5 µM; letermovir EC50 - 5 nM; brincidofovir EC50 -1 nM.
For the 2-drug combination studies, the EC50 value of each drug was used to determine an equipotent ratio between the two compounds (EC50 of drug 1 / EC50 of drug 2). Serial 2-fold dilutions of a mixture comprising artemisone and another antiviral compound at initial concentrations equivalent to 4-fold the equipotent ratio were added to duplicate wells of cells infected with HCMV. Overall, 5 different concentrations of the drug combinations were used: 4xEC50, 2xEC50, 1xEC50,0.5xEC50,0.25xEC50. The cell monolayers were inoculated in 24-well culture plates with 0.2 ml of virus suspension containing 60 to 100 plaque-forming unit (PFU) per well; the Multiplicity of infection (MOI) was 0.001-0.002 PFU/cell).
D1 and D2 are the doses of the two drugs, and Dx is a dose causing to x% effect (LD0.5 is EC50). Briefly, the software extrapolated a combination index (CI) representing the interaction between the two drugs at specified levels of virus inhibition (that is 50%, 75%, 90%, 95%) versus the percentages of the inhibition induced by each drug alone and in combination (equation 16 in Chou).
A weighted average CI (CIwt) was then calculated for each combination as (CI50+ 2×CI75+3×CI90+4×CI95)/10, to access the drug combinatory effects.
The dose reduction index (DRI) was then calculated as described in Chou. In general, the DRI measures the fold of dose reduction of each drug in the combination at a given effect level compared with the doses of each drug alone. For each one of the below tables: Fa - fraction of virus affected; doses are provided in µm.

[2] = system: HCMV; assay: Ex vivo HCMV infection of human decidual (placental) tissue organ cultures, viral mRNA copy number; assay type: cell-based, human cytomegalovirus; settings: for EC50: Human betaherpesvirus 5; for Dose of drug alone at Fa 0.9: Fa 0.9, drug alone; for DRI (dose reduction index): combination artemisone + maribavir
Protocol: Organ cultures were washed and stored at -80° C. until assayed. RNA was extracted, and the purified RNA samples were subjected to reverse transcription (RT), followed by quantitative real-time PCR. The viral mRNA copy number was normalized by the cellular housekeeping gene β-actin.
We employed our model of HCMV infection in human decidual tissues (representing the maternal aspect of the chimeric human placenta), maintained as multi-cell-type 3D organ cultures as described in Weisblum Y. et al. J Virol 2011 85(24): 13204-13. doi: 10.1128/JVI.05749-11. For infection of the organ cultures, decidual tissues were placed in 48-well plates and inoculated with the virus (5x10^4 plaque forming units (PFU)/well) for 12 h to allow effective viral adsorption. The tissues were further monitored for viral infection and spread for 7 days. For determination of the drug EC50 values of in the tissues, serial drug concentrations: each drug separately or combination of the drugs were added to the infected decidual tissues during viral adsorption at any further medium replacement to keep the drug concentration constant. The results were compared to samples to which the drug was not added. The EC50 was defined as the drug concentration required to reduce the viral mRNA copy number by 50%. The effect of drug combinations was tested in accordance with the Chou-Talalay method. All comparative experiments were performed in parallel on tissues from the same donor.
The dose reduction index (DRI) was then calculated as described in Chou. As described earlier, the DRI is a measure of how many folds the dose of each drug in a synergistic combination may be reduced at a given effect level compared with the doses of each drug alone. For each one of the below tables: Fa - fraction of virus affected; doses are provided in µm.

For CC(C)Nc1nc2cc(Cl)c(Cl)cc2n1[C@H]1O[C@@H](CO)[C@H](O)[C@@H]1O [maribavir], the “Dose of drug alone at Fa 0.75” value ([1]; Fa 0.75, drug alone) was 0.8994 µm, the “Dose of drug alone at Fa 0.9” value ([1]; Fa 0.9, drug alone) was 3.458 µm and the “Dose of drug alone at Fa 0.95” value ([1]; Fa 0.95, drug alone) was 8.644 µm. For the same compound, the “Dose of drug alone at Fa 0.97” value ([1]; Fa 0.97, drug alone) was 16.5865 µm, the “Dose of drug alone at Fa 0.05” value ([1]; Fa (fraction of virus affected) 0.05, drug alone) was 0.00633 µm and the EC50 ([1]; Fa 0.5, drug alone, read-out: Dose of drug alone at Fa 0.5) was 234 nM. The EC50 ([1]; drug alone, human foreskin fibroblasts, read-out: EC50 (concentration that reduced the plaque formation by 50%)) was 1000 nM, the “DRI (dose reduction index)” value ([1]; Fa 0.05) was 2.039 and the “DRI (dose reduction index)” value ([1]; Fa 0.5) was 5.884. For the same compound, the “DRI (dose reduction index)” value ([1]; Fa 0.75) was 8.738, the “DRI (dose reduction index)” value ([1]; Fa 0.9) was 12.98 and the “DRI (dose reduction index)” value ([1]; Fa 0.9, listed as MBV) was 12.9771. For the same compound, the “DRI (dose reduction index)” value ([1]; Fa 0.95) was 16.9821, the “DRI (dose reduction index)” value ([1]; Fa 0.97) was 20.6 and the “DRI (dose reduction index)” value ([1]; Fa 0.97, listed as MBV) was 20.5640. For the same compound, the EC50 ([2]; ex vivo, Fa 0.5, drug alone, read-out: Dose of drug alone at Fa 0.5) was 186 nM, the EC50 ([2]; sole drug, ex vivo decidual tissues, read-out: EC50 (concentration required to reduce the viral mRNA copy number by 50%)) was 250 nM and the “Dose of drug alone at Fa 0.05” value ([2]; ex vivo, Fa 0.05, drug alone) was 0.01861 µm. For the same compound, the “Dose of drug alone at Fa 0.75” value ([2]; ex vivo, Fa 0.75, drug alone) was 0.4396 µm, the “Dose of drug alone at Fa 0.9” value ([2]; ex vivo) was 1.03 µm and the “Dose of drug alone at Fa 0.9” value ([2]; ex vivo, listed as MBV) was 1.038 µm. For the same compound, the “Dose of drug alone at Fa 0.95” value ([2]; ex vivo, Fa 0.95, drug alone) was 1.862 µm, the “Dose of drug alone at Fa 0.97” value ([2]; ex vivo, Fa 0.97, drug alone) was 2.822 µm and the “DRI (dose reduction index)” value ([2]; ex vivo, Fa 0.05) was 0.66. For the same compound, the “DRI (dose reduction index)” value ([2]; ex vivo, Fa 0.5) was 0.982, the “DRI (dose reduction index)” value ([2]; ex vivo, Fa 0.75) was 1.139 and the “DRI (dose reduction index)” value ([2]; ex vivo, Fa 0.9) was 1.3. The “DRI (dose reduction index)” value ([2]; ex vivo, Fa 0.9, listed as MBV) was 1.321, the “DRI (dose reduction index)” value ([2]; ex vivo, Fa 0.95, listed as MBV) was 1.461 and the “DRI (dose reduction index)” value ([2]; ex vivo, Fa 0.97) was 1.57.

Reference: US20230149418A1, “METHODS AND SYNERGIC COMPOSITIONS FOR TREATING VIRAL INFECTIONS” (HADASIT MEDICAL RESEARCH SERVICES AND DEVELOPMENT LTD., priority 2018, published 2023)
